Reference: ChEMBL document CHEMBL1201862, “PubChem BioAssay data set” (2004)
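In this assay, cells in 96-well plates receive the compound at five concentrations for 48 hours. Endpoints are linearly interpolated between the surrounding concentrations. GI50 = concentration required for 50% inhibition of growth.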 Active and inactive are the calls of the source. Cut-off read from the data, not from the text of the source: active = GI50 up to about 1.1 µM and inactive = higher.

Key:
Assay in all cases: DTP human tumour cell line panel, 48 h
MDA-N = system: MDA-N
RPMI-8226 = system: RPMI-8226
Hs-578T = system: Hs-578T
SNB-19 = system: SNB-19
PC-3 = system: PC-3
A549 = system: A549
SF-295 = system: SF-295
UO-31 = system: UO-31
SK-OV-3 = system: SK-OV-3
SF-539 = system: SF-539
SNB-75 = system: SNB-75
OVCAR-5 = system: OVCAR-5
HL-60 = system: HL-60
SK-MEL-2 = system: SK-MEL-2
SW-620 = system: SW-620
CAKI-1 = system: CAKI-1
786-0 = system: 786-0
IGROV-1 = system: IGROV-1
HCT-15 = system: HCT-15
SN12C = system: SN12C
HOP-92 = system: HOP-92
HCT-116 = system: HCT-116
NCI-H23 = system: NCI-H23
HOP-62 = system: HOP-62
T47D = system: T47D
OVCAR-8 = system: OVCAR-8
EKVX = system: EKVX
UACC-62 = system: UACC-62
LOX IMVI = system: LOX IMVI
BT-549 = system: BT-549
KM12 = system: KM12
A498 = system: A498
NCI-H226 = system: NCI-H226
DU-145 = system: DU-145
MCF7 = system: MCF7
RXF 393 = system: RXF 393
OVCAR-4 = system: OVCAR-4
SF-268 = system: SF-268
COLO 205 = system: COLO 205
HCC 2998 = system: HCC 2998
MDA-MB-435 = system: MDA-MB-435
HT-29 = system: HT-29
SK-MEL-5 = system: SK-MEL-5
OVCAR-3 = system: OVCAR-3
NCI/ADR-RES = system: NCI/ADR-RES
NCI-H522 = system: NCI-H522
NCI-H460 = system: NCI-H460
K562 = system: K562
MDA-MB-231 = system: MDA-MB-231
Malme-3M = system: Malme-3M
ACHN = system: ACHN
MOLT-4 = system: MOLT-4
M14 = system: M14
SK-MEL-28 = system: SK-MEL-28
U-251 = system: U-251
CCRF-CEM = system: CCRF-CEM
TK-10 = system: TK-10
SR = system: SR
UACC-257 = system: UACC-257

**Q.** What does the source list for `COc1cccc(N2C(=O)C3c4[nH]c5ccccc5c4C4c5ccccc5CCC4C3C2=O)c1` (configuration not stated)?
**A.** GI50 (MDA-N): > 8.28 µM (inactive); GI50 (RPMI-8226): > 10 µM (inactive); GI50 (Hs-578T): 3 µM (inactive); GI50 (SNB-19): 3.31 µM (inactive); GI50 (PC-3): > 6.7 µM (inactive); GI50 (A549): 6.12 µM (inactive); GI50 (SF-295): > 10 µM (inactive); GI50 (UO-31): 4.27 µM (inactive); GI50 (SK-OV-3): > 4.86 µM (inactive); GI50 (SF-539): 2.5 µM (inactive); GI50 (SNB-75): 2.7 µM (inactive); GI50 (OVCAR-5): > 10 µM (inactive); GI50 (HL-60): > 10 µM (inactive); GI50 (SK-MEL-2): > 10 µM (inactive); GI50 (SW-620): > 9.14 µM (inactive); GI50 (CAKI-1): > 10 µM (inactive); GI50 (786-0): 2.9 µM (inactive); GI50 (IGROV-1): > 7.98 µM (inactive); GI50 (HCT-15): > 10 µM; GI50 (SN12C): > 6.03 µM (inactive); GI50 (HOP-92): 6.15 µM (inactive); GI50 (HCT-116): 4.34 µM (inactive); GI50 (NCI-H23): > 10 µM (inactive); GI50 (HOP-62): 2.4 µM (inactive); GI50 (T47D): > 10 µM (inactive); GI50 (OVCAR-8): 2.34 µM (inactive); GI50 (EKVX): > 9.31 µM (inactive); GI50 (UACC-62): > 10 µM (inactive); GI50 (LOX IMVI): > 10 µM (inactive); GI50 (BT-549): 4.91 µM (inactive); GI50 (KM12): > 10 µM (inactive); GI50 (A498): 2.77 µM (inactive); GI50 (NCI-H226): > 4.37 µM (inactive); GI50 (DU-145): > 10 µM (inactive); GI50 (MCF7): > 10 µM (inactive); GI50 (RXF 393): > 6.62 µM (inactive); GI50 (OVCAR-4): 2.75 µM (inactive); GI50 (SF-268): 4.16 µM (inactive); GI50 (COLO 205): > 7.87 µM (inactive); GI50 (HCC 2998): > 10 µM (inactive); GI50 (MDA-MB-435): > 7.5 µM (inactive); GI50 (HT-29): 9.93 µM (inactive); GI50 (SK-MEL-5): > 8.81 µM (inactive); GI50 (OVCAR-3): 5.5 µM (inactive); GI50 (NCI/ADR-RES): 4.76 µM (inactive); GI50 (NCI-H522): > 10 µM (inactive); GI50 (NCI-H460): 4.82 µM (inactive); GI50 (K562): > 10 µM (inactive); GI50 (MDA-MB-231): 5.06 µM (inactive); GI50 (Malme-3M): 3.75 µM (inactive); GI50 (ACHN): > 10 µM (inactive); GI50 (MOLT-4): > 10 µM (inactive); GI50 (M14): 4.92 µM (inactive); GI50 (SK-MEL-28): > 9.55 µM (inactive); GI50 (U-251): 3.82 µM (inactive); GI50 (CCRF-CEM): > 10 µM (inactive); GI50 (TK-10): > 10 µM (inactive)

**Q.** What does the source list for `C=C1CC2C[C@H](OS(=O)(=O)c3ccc(C)cc3)C(C1)N2C` (some centres not stated)?
**A.** GI50 (MDA-N): > 100 µM (inactive); GI50 (RPMI-8226): > 100 µM (inactive); GI50 (Hs-578T): > 100 µM (inactive); GI50 (SNB-19): > 100 µM (inactive); GI50 (PC-3): > 100 µM (inactive); GI50 (A549): > 100 µM (inactive); GI50 (SF-295): > 100 µM (inactive); GI50 (UO-31): > 100 µM (inactive); GI50 (SK-OV-3): > 100 µM (inactive); GI50 (SF-539): > 100 µM (inactive); GI50 (SNB-75): 61.9 µM (inactive); GI50 (HL-60): > 100 µM (inactive); GI50 (SK-MEL-2): > 100 µM (inactive); GI50 (SW-620): > 100 µM (inactive); GI50 (SR): > 100 µM (inactive); GI50 (CAKI-1): > 100 µM (inactive); GI50 (786-0): > 100 µM (inactive); GI50 (IGROV-1): > 100 µM (inactive); GI50 (HCT-15): > 100 µM; GI50 (SN12C): > 100 µM (inactive); GI50 (HCT-116): > 100 µM (inactive); GI50 (NCI-H23): > 100 µM (inactive); GI50 (HOP-62): > 100 µM (inactive); GI50 (T47D): > 100 µM (inactive); GI50 (OVCAR-8): > 100 µM (inactive); GI50 (EKVX): > 100 µM (inactive); GI50 (UACC-62): > 100 µM (inactive); GI50 (LOX IMVI): > 100 µM (inactive); GI50 (BT-549): > 100 µM (inactive); GI50 (KM12): > 100 µM (inactive); GI50 (NCI-H226): > 100 µM (inactive); GI50 (DU-145): > 100 µM (inactive); GI50 (MCF7): > 100 µM (inactive); GI50 (RXF 393): > 100 µM (inactive); GI50 (OVCAR-4): > 100 µM (inactive); GI50 (SF-268): > 100 µM (inactive); GI50 (COLO 205): > 100 µM (inactive); GI50 (HCC 2998): > 100 µM (inactive); GI50 (MDA-MB-435): > 100 µM (inactive); GI50 (HT-29): > 100 µM (inactive); GI50 (SK-MEL-5): > 100 µM (inactive); GI50 (OVCAR-3): > 100 µM (inactive); GI50 (UACC-257): > 100 µM (inactive); GI50 (NCI/ADR-RES): > 100 µM (inactive); GI50 (NCI-H522): > 100 µM (inactive); GI50 (NCI-H460): > 100 µM (inactive); GI50 (K562): > 100 µM (inactive); GI50 (MDA-MB-231): > 100 µM (inactive); GI50 (Malme-3M): > 100 µM (inactive); GI50 (MOLT-4): > 100 µM (inactive); GI50 (M14): > 100 µM (inactive); GI50 (SK-MEL-28): > 100 µM (inactive); GI50 (U-251): > 100 µM (inactive); GI50 (CCRF-CEM): > 100 µM (inactive); GI50 (TK-10): > 100 µM (inactive)
